These results are taken from BindingDB's records for doi:10.7270/Q2Z036M0 (Broad Institute, 2010).

For this assay, the target named is T1, S-ribosylhomocysteine lyase (Vibrio harveyi, UniProt B0LUE4).
T1 sequence (B0LUE4 whole entry): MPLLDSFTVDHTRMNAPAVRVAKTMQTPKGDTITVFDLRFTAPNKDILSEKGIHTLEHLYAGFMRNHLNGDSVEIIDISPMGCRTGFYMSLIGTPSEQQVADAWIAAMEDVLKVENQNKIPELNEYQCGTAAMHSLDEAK
The assay is described as follows: AI-2 quorum sensing modulators, luminescence, confirmation, dose retest, Vibrio harveyi (AID 2724).

In general, EC50 refers to the concentration that produces a half-maximal response. `C=Cn1c(C(=O)O)ccc1-c1ccc(CC)cc1` showed a 50% effective concentration (EC50) of 2.07 µM. Then `COc1cc(NC(=O)CN2C(=O)NC(c3ccccc3)(c3ccccc3)C2=O)cc(OC)c1` [MLS001176525], with 1.57 µM; and `CCc1ccc(S(=O)(=O)Nc2ccc(Br)cn2)cc1` [MLS001211346], with 3.64 µM; and `CCCc1ccc(S(=O)(=O)N(C)S(=O)(=O)c2ccc(F)cc2)cc1` [N-(4-fluorophenyl)sulfonyl-N-methyl-4-propylbenzenesulfonamide], with 1.62 µM. The figure for `CN(C)S(=O)(=O)c1ccc(NC(=S)NC(=O)Cc2ccccc2)cc1` [N-[[4-(dimethylsulfamoyl)phenyl]carbamothioyl]-2-phenyl-ethanamide] is greater than 160 µM; for `Cc1cccc(NS(=O)(=O)c2ccc(Oc3ccccc3)cc2)n1` [SMR000071466] it is 2.56 µM; for `Cn1cnc(S(=O)(=O)Nc2ccc(OC(F)(F)F)cc2)c1` [SMR000314513] it is 4.39 µM.
